Reference: paper PMC8026785, “The pharmacokinetics of [^18F]UCB-H revisited in the healthy non-human primate brain” (EJNMMI Research, 2021)
Values joined by “and” are separate entries in the source; they are usually repeats but may differ in a detail not shown here. Equal values may be shown once.

Target: T1, SV2A (Macaca fascicularis, UniProt Q4R4X3)
T1 construct: The current study evaluates [^18F]UCB-H pharmacokinetics in healthy NHPs; from tissue; host or cells: brain of living healthy cynomolgus monkeys (in vivo PET)
Test: Brain PET kinetic modelling (1TCM, 2TCM, 2TCM-c, Logan), test-retest
Type: in vivo, cynomolgus monkeys (Macaca fascicularis)
Description: All four non-human primates (NHP) underwent a 2-h (2 h) test and retest PET scan; two NHP underwent an additional 4-h (4 h) retest PET scan. Three NHP underwent one 4-h (4 h) displacement PET scan. Arterial blood sampling was performed during test and retest scans with PET imaging spaced by at least 3 weeks between each scan. To this end, the femoral artery opposite to the saphenous vein used for radioligand injection was cannulated. For the 2-h (2 h) scans, we collected in total 28 blood samples of 1 mL: 16 samples during the first 5 min followed by […] every 5 min and […] every 10 min. For the 4 h scans, we collected an additional 6 samples every 20 min during the last two hours (34 samples in total). Larger samples (2 – 3 mL) were collected at 5, 15, 30, 60, 90, 120 min (2 h) and at 180, 240 min (4 h) for metabolite analysis. Displacement of [^18F]UCB-H was done by intravenous (IV) administration 90 min after [^18F]UCB-H injection of a bolus of 30 mg/kg LEV, or of 80 µg/kg (≈250 nmol/kg) or 5 mg/kg (≈15 µmol/kg) of cold [^19F]-UCB-H. Full experimental design of all NHP is outlined in Additional file 1: Table 1.
PET imaging was performed on the microPET FOCUS220 (Siemens) under standard anesthesia and monitoring procedures. Data acquisition started with the IV bolus injection of [^18F]UCB-H (32.9 ± 1.0 MBq/kg, 0.35 ± 0.07 µg/kg). Dynamic PET images were reconstructed using standard OSEM-2D algorithms while correcting for radioactive decay, scatter, attenuation and detectors inhomogeneity, which were measured prior to PET scanning using respectively ^57Co and ^68Ge external sources.
PET image analysis was performed using PMOD software version 3.8 (PMOD Technologies Ltd., Zurich, Suisse). After individual co-registration of PET-MR images, a cynomolgus atlas published by Ballanger and coworkers was normalized to PET images to extract time activity curves in different brain regions. Volumes of interest (VOI) were cerebral white matter (16.7 cm^3), striatum (0.24 cm^3), thalamus (0.89 cm^3), cerebellum (3.83 cm^3), frontal—(2.50 cm^3), parietal—(5.35 cm^3), and temporal (8.22 cm^3) cortex, and whole brain (72.2 cm^3) as a composite region of all regions in the atlas. [^18F]UCB-H pharmacokinetics were evaluated by analyzing the time activity curves of the test- and retest scans using 1- and 2-tissue compartment models (unconstrained and constrained with global K1/k2 coupled fit across all regions, further referred to as 2TCM and 2TCM-c), and Logan graphical analysis with a fixed t* at 60 min [33] using the arterial plasma input function corrected for radio-metabolites to derive the volume of distribution in each region. Percentage standard error (%SE) was estimated from the theoretical parameter covariance matrix. Only reliable estimates (%SE less than 25%) were included in the current analyses. For the three drug studies, percent displacement of the total activity in the whole brain was estimated relative to an average baseline constructed from the two 4 h baseline studies. Briefly, Standardized Uptake Value (SUV) time activity curves (TACs) were calculated for the two baseline and the three displacement studies. Then, each curve was normalized to the SUV at t = 90 min, corresponding to the timeframe immediately before the administration of the drugs in the displacement studies. Baseline curves were averaged and the percent displacement of total activity was calculated as (baseline-displacement)/baseline at a given time post drug administration (see “Results”).
Statistical analysis was performed using R software (version 3.3.1.). Plasma, intact parent fraction and time activity curves were statistically compared between subjects using a one-factor variance analysis. Absolute Test–Retest variability (aTRV) of PET quantification parameters was calculated as ABS(test—retest) / AVERAGE(test, retest). […]

[1] = Temporal Cortex, Retest, individual NHP
[2] = Temporal Cortex, Test, individual NHP
[3] = Thalamus, Retest, individual NHP

T1 sequence (Q4R4X3 whole entry): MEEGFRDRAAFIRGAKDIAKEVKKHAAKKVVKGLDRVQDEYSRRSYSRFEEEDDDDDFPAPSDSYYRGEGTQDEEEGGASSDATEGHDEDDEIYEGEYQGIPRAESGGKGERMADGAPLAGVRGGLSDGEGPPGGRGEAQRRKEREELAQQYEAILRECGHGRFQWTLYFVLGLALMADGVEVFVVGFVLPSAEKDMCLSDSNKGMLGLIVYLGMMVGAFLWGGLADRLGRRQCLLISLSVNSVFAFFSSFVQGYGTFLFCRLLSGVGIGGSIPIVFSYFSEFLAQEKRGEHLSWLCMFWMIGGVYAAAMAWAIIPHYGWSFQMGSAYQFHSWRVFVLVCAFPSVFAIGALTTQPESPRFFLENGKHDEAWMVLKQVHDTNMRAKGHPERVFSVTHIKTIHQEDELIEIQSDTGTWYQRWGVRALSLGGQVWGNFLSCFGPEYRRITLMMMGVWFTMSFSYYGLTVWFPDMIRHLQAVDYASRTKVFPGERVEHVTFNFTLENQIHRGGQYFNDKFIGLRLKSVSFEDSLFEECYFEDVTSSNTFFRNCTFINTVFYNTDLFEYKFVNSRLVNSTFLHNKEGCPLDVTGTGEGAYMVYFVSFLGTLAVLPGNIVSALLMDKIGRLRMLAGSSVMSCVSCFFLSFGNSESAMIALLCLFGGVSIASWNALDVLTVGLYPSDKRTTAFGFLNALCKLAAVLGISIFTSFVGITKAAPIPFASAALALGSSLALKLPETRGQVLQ

O=C1C[C@H](c2cc(F)c(F)c(F)c2)CN1Cc1ccncc1[18F] [[^18F]UCB-H]
VT (Logan (t* = 60)) (Striatum, Retest, mean): 15.7 mL/cm^3
k3/k4 (BPND) (2TCM-c) (Striatum, Retest, mean): 1.12
K1 (2TCM) (Striatum, Test, individual NHP): 0.24 ml/cm^3 /min and 0.25 ml/cm^3 /min and 0.51 ml/cm^3 /min and 0.63 ml/cm^3 /min
K1 (2TCM-c) (Striatum, Test, individual NHP): 0.24 ml/cm^3 /min and 0.26 ml/cm^3 /min and 0.53 ml/cm^3 /min and 0.63 ml/cm^3 /min
K1/k2 (2TCM) (Striatum, Test, individual NHP): 10.32 ml/cm^3 and 7.75 ml/cm^3 and 12.01 ml/cm^3 and 15.06 ml/cm^3
K1/k2 (2TCM-c) (Striatum, Test, individual NHP): 7.86 ml/cm^3 and 4.35 ml/cm^3 and 8.22 ml/cm^3 and 10.99 ml/cm^3
VT (1TCM) (Striatum, Test, individual NHP): 12.87 ml/cm^3 and 11.31 ml/cm^3 and 16.41 ml/cm^3 and 16.40 ml/cm^3
VT (2TCM) (Striatum, Test, individual NHP): 13.09 ml/cm^3 and 17.60 ml/cm^3
VT (2TCM-c) (Striatum, Test, individual NHP): 14.78 ml/cm^3 and 11.92 ml/cm^3 and 16.73 ml/cm^3 and 16.50 ml/cm^3
VT (Logan) (Striatum, Test, individual NHP): 15.21 ml/cm3 and 12.85 ml/cm3 and 17.23 ml/cm3 and 17.97 ml/cm3
k3/k4 (2TCM) (Striatum, Test, individual NHP): 0.69
k3/k4 (2TCM-c) (Striatum, Test, individual NHP): 1.74 and 1.24 and 0.50
VT (1TCM) (Striatum, Test, mean): 14.2 mL/cm^3
VT (2TCM) (Striatum, Test, mean): 15.3 mL/cm^3
VT (2TCM-c) (Striatum, Test, mean): 15.0 mL/cm^3
VT (Logan (t* = 60)) (Striatum, Test, mean): 15.8 mL/cm^3
k3/k4 (BPND) (2TCM-c) (Striatum, Test, mean): 1.16
K1 (2TCM) [1]: 0.31 ml/cm^3 /min and 0.45 ml/cm^3 /min and 0.29 ml/cm^3 /min and 0.36 ml/cm^3 /min
K1 (2TCM-c) [1]: 0.32 ml/cm^3 /min and 0.48 ml/cm^3 /min and 0.30 ml/cm^3 /min and 0.36 ml/cm^3 /min
K1/k2 (2TCM) [1]: 11.50 ml/cm^3 and 9.63 ml/cm^3 and 11.78 ml/cm^3
K1/k2 (2TCM-c) [1]: 7.25 ml/cm^3 and 4.64 ml/cm^3 and 9.07 ml/cm^3 and 10.70 ml/cm^3
VT (1TCM) [1]: 11.57 ml/cm^3 and 13.96 ml/cm^3 and 13.50 ml/cm^3 and 13.13 ml/cm^3
VT (2TCM) [1]: 13.97 ml/cm^3 and 13.95 ml/cm^3
VT (2TCM-c) [1]: 11.57 ml/cm^3 and 14.06 ml/cm^3 and 13.53 ml/cm^3
VT (Logan) [1]: 11.91 ml/cm3 and 13.90 ml/cm3 and 16.34 ml/cm3 and 13.54 ml/cm3
k3/k4 (2TCM-c) [1]: 0.60 and 2.03 and 0.29
K1 (2TCM) [2]: 0.17 ml/cm^3 /min and 0.23 ml/cm^3 /min and 0.37 ml/cm^3 /min and 0.44 ml/cm^3 /min
K1 (2TCM-c) [2]: 0.17 ml/cm^3 /min and 0.24 ml/cm^3 /min and 0.37 ml/cm^3 /min and 0.44 ml/cm^3 /min
K1/k2 (2TCM) [2]: 11.10 ml/cm^3 and 7.16 ml/cm^3 and 8.97 ml/cm^3 and 12.30 ml/cm^3
K1/k2 (2TCM-c) [2]: 7.86 ml/cm^3 and 4.35 ml/cm^3 and 8.22 ml/cm^3 and 10.99 ml/cm^3
VT (1TCM) [2]: 12.66 ml/cm^3 and 10.58 ml/cm^3 and 14.25 ml/cm^3 and 13.95 ml/cm^3
VT (2TCM) [2]: 12.30 ml/cm^3 and 15.50 ml/cm^3
VT (2TCM-c) [2]: 17.46 ml/cm^3 and 11.23 ml/cm^3 and 14.95 ml/cm^3 and 15.47 ml/cm^3
VT (Logan) [2]: 14.13 ml/cm3 and 11.99 ml/cm3 and 15.12 ml/cm3 and 15.35 ml/cm3
k3/k4 (2TCM) [2]: 0.72
k3/k4 (2TCM-c) [2]: 1.00 and 1.58 and 0.41
ICC of Logan (t* = 60) VT (Temporal cortex): 0.61
aTRV of 2TCM-c VT (Temporal cortex): 25%
aTRV of Logan (t* = 60) VT (Temporal cortex): 13%
VT (1TCM) (Temporal cortex, Retest, mean): 13.0 mL/cm^3
VT (2TCM) (Temporal cortex, Retest, mean): 14.0 mL/cm^3
VT (2TCM-c) (Temporal cortex, Retest, mean): 13.1 mL/cm^3
VT (Logan (t* = 60)) (Temporal cortex, Retest, mean): 13.9 mL/cm^3
k3/k4 (BPND) (2TCM-c) (Temporal cortex, Retest, mean): 0.97
VT (1TCM) (Temporal cortex, Test, mean): 12.9 mL/cm^3
VT (2TCM) (Temporal cortex, Test, mean): 13.9 mL/cm^3
VT (2TCM-c) (Temporal cortex, Test, mean): 14.8 mL/cm^3
VT (Logan (t* = 60)) (Temporal cortex, Test, mean): 14.1 mL/cm^3
k3/k4 (BPND) (2TCM-c) (Temporal cortex, Test, mean): 1.00
ICC of Logan (t* = 60) VT (Thalamus): 0.61
aTRV of 2TCM-c VT (Thalamus): 18%
aTRV of Logan (t* = 60) VT (Thalamus): 12%
K1 (2TCM) [3]: 0.36 ml/cm^3 /min and 0.51 ml/cm^3 /min and 0.34 ml/cm^3 /min and 0.38 ml/cm^3 /min
K1 (2TCM-c) [3]: 0.37 ml/cm^3 /min and 0.54 ml/cm^3 /min and 0.36 ml/cm^3 /min and 0.38 ml/cm^3 /min
K1/k2 (2TCM) [3]: 12.79 ml/cm^3 and 11.34 ml/cm^3 and 12.88 ml/cm^3
K1/k2 (2TCM-c) [3]: 7.25 ml/cm^3 and 4.64 ml/cm^3 and 9.07 ml/cm^3 and 10.70 ml/cm^3
VT (1TCM) [3]: 11.85 ml/cm^3 and 13.85 ml/cm^3 and 14.73 ml/cm^3 and 13.28 ml/cm^3
VT (2TCM) [3]: 11.88 ml/cm^3 and 14.03 ml/cm^3
VT (2TCM-c) [3]: 11.88 ml/cm^3 and 13.92 ml/cm^3 and 17.03 ml/cm^3 and 13.98 ml/cm^3
VT (Logan) [3]: 12.16 ml/cm3 and 14.10 ml/cm3 and 17.41 ml/cm3 and 13.62 ml/cm3
